Assay results taken from publication PMC8426393, “Interactions of anti-COVID-19 drug candidates with hepatic transporters may cause liver toxicity and affect pharmacokinetics” (Scientific Reports, 2021).
“Also recorded” adds a separate entry of the source. Where two headings read alike, the source gives them in different places.

Key:
ABCC2/MRP2 = molecular target: T1, ABCC2/MRP2 (Homo sapiens, UniProt Q92887); experiment: MRP2 vesicular transport: ATP-dependent CDCF uptake into inverted Sf9 membrane vesicles; type: biochemical; conditions: CDCF 5 µM, 37 °C, 10 min; for ABCC2/MRP2 Type of effect: Sf9 vesicles
T1 construct: made in house; host or cells: Sf9 insect cells (baculovirus)
T1 sequence (Q92887 whole entry): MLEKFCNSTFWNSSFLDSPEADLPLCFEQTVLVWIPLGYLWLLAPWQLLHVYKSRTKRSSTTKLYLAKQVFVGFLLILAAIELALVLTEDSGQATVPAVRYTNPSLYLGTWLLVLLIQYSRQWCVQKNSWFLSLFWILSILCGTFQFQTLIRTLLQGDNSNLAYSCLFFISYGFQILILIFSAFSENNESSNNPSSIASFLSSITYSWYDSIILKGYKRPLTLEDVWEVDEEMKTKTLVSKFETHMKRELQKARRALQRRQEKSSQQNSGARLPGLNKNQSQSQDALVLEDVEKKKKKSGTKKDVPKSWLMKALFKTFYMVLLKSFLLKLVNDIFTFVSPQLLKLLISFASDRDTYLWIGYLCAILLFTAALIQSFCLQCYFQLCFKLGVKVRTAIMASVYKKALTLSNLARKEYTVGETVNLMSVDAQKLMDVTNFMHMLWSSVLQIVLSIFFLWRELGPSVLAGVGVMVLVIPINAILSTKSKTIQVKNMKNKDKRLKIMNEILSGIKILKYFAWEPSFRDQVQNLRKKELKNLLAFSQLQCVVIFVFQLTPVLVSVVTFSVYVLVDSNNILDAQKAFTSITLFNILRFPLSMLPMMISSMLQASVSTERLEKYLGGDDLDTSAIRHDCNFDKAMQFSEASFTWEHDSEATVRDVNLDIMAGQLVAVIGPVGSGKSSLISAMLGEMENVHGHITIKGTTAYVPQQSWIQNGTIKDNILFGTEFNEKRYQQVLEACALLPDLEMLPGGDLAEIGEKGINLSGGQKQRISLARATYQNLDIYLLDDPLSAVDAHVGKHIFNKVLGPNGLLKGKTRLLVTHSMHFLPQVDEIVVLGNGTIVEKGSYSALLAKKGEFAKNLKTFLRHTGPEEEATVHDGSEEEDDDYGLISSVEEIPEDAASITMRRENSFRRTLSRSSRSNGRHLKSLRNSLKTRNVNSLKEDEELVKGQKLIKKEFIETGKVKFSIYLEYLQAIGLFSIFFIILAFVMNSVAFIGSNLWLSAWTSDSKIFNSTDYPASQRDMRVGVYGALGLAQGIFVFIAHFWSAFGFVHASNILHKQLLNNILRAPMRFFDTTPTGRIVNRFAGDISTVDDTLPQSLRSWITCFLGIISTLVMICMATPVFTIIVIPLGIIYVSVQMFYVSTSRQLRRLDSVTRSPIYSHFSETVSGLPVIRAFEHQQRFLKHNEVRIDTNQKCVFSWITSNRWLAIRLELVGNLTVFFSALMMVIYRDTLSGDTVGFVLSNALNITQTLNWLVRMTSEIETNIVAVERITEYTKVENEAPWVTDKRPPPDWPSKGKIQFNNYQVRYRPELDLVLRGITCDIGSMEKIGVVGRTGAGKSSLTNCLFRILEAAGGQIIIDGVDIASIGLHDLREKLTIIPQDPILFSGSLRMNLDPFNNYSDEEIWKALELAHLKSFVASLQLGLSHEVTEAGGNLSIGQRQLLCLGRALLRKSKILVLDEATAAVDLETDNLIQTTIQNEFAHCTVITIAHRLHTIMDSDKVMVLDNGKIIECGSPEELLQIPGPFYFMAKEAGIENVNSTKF

ABCC3/MRP3 = molecular target: T2, ABCC3/MRP3 (Homo sapiens, UniProt O15438); experiment: MRP3 vesicular transport: ATP- and benzbromarone-sensitive CDCF uptake into inverted HEK-293 membrane vesicles; type: biochemical; conditions: for ABCC3/MRP3 Type of effect: HEK-293 vesicles; for concentration at which MRP3 transport is inhibited: CDCF uptake
T2 construct: purchased Solvo Biotechnology (Budapest, Hungary); host or cells: HEK-293 cells
T2 sequence (O15438 whole entry): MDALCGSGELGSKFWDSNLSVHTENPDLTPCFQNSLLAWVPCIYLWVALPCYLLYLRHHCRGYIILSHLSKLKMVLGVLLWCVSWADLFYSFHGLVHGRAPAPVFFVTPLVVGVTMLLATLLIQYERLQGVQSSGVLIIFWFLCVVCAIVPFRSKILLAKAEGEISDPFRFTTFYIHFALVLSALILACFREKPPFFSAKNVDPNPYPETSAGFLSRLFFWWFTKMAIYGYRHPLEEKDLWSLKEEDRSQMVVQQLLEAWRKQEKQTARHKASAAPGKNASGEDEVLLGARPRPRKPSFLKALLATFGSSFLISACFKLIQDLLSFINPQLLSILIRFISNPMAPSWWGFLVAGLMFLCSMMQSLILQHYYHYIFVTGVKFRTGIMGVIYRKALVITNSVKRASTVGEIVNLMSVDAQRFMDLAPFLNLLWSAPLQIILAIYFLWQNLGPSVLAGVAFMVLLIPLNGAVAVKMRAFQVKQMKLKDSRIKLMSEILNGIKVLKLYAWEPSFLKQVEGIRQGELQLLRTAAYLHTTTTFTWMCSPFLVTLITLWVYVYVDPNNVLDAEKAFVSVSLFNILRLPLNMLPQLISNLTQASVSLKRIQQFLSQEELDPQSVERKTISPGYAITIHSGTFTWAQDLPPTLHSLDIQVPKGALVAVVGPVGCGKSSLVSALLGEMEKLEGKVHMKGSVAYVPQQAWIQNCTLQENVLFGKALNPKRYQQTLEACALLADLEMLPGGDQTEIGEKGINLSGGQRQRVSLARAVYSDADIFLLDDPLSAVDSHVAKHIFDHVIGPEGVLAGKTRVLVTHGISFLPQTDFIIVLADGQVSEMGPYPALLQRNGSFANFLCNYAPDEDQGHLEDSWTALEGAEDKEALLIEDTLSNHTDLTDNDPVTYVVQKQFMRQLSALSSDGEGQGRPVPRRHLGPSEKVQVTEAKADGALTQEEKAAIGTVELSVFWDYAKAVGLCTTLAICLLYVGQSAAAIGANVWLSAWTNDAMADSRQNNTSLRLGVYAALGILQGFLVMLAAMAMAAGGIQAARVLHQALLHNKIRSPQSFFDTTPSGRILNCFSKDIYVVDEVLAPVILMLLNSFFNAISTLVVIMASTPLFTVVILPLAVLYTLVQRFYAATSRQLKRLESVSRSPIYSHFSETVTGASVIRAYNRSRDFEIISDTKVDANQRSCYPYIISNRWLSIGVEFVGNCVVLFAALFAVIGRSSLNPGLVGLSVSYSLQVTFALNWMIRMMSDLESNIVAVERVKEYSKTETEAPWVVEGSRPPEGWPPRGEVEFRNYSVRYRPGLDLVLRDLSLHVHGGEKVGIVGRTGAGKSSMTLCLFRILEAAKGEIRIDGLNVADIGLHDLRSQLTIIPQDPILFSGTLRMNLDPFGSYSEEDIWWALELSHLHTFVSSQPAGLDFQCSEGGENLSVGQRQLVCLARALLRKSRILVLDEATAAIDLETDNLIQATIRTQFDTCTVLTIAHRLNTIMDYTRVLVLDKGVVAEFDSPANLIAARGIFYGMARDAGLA

ABCC4/MRP4 = molecular target: T3, ABCC4/MRP4 (Homo sapiens, UniProt O15439); experiment: MRP4 vesicular transport: ATP-dependent DHEAS uptake into inverted HEK-293 membrane vesicles; type: biochemical; conditions: for inhibition at […]: up to 50 µM drug, read-out: maximum inhibition of MRP4-dependent substrate transport; for ABCC4/MRP4 Type of effect: DHEAS 0.5 µM, 32 °C, HEK-293 vesicles
T3 construct: purchased Solvo Biotechnology (Budapest, Hungary); host or cells: HEK-293 cells
T3 sequence (O15439 1-1325): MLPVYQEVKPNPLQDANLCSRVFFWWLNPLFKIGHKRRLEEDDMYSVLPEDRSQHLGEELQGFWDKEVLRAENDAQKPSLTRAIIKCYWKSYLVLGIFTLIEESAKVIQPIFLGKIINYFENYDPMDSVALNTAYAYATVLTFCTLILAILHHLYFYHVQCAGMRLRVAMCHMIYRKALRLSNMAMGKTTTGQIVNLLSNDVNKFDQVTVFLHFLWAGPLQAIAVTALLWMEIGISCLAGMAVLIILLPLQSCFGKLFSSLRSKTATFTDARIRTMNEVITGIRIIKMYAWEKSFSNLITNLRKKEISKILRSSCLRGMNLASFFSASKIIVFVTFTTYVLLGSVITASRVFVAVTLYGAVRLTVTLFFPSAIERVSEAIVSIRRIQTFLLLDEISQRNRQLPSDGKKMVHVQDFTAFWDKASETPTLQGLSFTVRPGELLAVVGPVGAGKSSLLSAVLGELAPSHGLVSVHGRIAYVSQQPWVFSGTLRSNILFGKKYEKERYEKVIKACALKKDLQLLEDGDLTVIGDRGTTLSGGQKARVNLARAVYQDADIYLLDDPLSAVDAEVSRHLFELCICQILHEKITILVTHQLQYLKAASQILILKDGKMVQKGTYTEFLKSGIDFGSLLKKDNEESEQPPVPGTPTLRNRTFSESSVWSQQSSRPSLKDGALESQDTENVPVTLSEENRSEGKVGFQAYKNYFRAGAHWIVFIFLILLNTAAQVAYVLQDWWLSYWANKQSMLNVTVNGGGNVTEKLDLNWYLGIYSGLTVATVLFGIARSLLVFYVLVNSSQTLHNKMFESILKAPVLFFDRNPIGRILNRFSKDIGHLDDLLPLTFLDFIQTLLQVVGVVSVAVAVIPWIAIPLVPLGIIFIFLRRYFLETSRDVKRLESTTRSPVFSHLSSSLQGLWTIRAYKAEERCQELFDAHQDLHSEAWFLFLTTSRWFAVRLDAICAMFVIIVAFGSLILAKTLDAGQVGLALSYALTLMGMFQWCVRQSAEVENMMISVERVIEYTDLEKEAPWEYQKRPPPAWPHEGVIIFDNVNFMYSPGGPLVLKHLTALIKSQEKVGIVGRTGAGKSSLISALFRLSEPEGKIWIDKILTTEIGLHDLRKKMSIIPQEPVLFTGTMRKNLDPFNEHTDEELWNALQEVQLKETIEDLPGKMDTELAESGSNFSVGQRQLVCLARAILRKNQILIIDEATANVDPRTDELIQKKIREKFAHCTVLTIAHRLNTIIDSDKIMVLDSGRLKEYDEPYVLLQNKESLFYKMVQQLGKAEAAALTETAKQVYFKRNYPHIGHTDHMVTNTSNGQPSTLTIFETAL

ABCB11/BSEP = molecular target: T4, ABCB11/BSEP (Homo sapiens, UniProt O95342); experiment: BSEP vesicular transport: ATP- and glyburide-sensitive taurocholate uptake into inverted HEK-293 membrane vesicles; type: biochemical; conditions: for ABCB11/BSEP Type of effect: HEK-293 vesicles; for concentration at which BSEP inhibition is effective: taurocholate transport
T4 construct: purchased Solvo Biotechnology (Budapest, Hungary); host or cells: HEK-293 cells
T4 sequence (O95342 whole entry): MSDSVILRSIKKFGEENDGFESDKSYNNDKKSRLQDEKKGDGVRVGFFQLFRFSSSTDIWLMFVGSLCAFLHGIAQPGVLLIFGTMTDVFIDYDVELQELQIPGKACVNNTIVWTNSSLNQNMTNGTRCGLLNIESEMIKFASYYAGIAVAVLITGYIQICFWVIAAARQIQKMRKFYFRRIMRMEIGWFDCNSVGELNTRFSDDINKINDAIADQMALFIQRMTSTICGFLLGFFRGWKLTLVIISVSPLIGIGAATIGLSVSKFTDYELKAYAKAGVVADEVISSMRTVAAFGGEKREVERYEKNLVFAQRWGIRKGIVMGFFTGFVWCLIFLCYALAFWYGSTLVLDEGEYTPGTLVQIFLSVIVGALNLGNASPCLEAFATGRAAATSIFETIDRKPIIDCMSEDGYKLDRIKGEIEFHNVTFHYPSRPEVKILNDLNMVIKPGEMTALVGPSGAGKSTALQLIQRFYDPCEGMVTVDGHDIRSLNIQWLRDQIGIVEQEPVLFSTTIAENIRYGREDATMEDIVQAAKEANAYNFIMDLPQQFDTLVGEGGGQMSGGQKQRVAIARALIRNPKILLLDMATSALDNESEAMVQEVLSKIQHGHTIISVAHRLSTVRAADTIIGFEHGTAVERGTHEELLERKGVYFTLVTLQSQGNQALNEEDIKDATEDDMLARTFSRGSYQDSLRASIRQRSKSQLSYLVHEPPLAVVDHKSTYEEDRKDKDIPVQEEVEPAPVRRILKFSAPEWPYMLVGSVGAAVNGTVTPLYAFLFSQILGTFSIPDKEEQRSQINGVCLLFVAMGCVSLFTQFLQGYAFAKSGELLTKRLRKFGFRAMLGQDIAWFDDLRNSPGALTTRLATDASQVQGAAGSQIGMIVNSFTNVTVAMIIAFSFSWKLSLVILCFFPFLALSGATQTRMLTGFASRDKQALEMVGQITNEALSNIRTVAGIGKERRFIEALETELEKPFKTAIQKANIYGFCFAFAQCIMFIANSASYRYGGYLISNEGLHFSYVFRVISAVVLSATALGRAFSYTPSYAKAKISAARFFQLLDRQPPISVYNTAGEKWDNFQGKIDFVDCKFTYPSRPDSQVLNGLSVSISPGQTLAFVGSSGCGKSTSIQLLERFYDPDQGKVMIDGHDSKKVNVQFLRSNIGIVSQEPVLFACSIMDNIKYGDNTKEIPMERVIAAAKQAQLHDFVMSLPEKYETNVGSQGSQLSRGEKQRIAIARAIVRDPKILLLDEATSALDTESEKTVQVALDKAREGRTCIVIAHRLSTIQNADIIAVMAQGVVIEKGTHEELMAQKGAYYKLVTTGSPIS

NTCP/SLC10A1 = molecular target: T5, NTCP/SLC10A1 (Homo sapiens, UniProt Q14973); experiment: NTCP-dependent taurocholate uptake in NTCP-overexpressing HEK-293 cells; type: cell-based; conditions: for NTCP/SLC10A1 Type of effect: taurocholate 2 µM, 2 min, 37 °C, HEK-293 cells
T5 construct: expressed in transfected cells; host or cells: HEK-293 cells, lentiviral transduction
T5 sequence (Q14973 1-349): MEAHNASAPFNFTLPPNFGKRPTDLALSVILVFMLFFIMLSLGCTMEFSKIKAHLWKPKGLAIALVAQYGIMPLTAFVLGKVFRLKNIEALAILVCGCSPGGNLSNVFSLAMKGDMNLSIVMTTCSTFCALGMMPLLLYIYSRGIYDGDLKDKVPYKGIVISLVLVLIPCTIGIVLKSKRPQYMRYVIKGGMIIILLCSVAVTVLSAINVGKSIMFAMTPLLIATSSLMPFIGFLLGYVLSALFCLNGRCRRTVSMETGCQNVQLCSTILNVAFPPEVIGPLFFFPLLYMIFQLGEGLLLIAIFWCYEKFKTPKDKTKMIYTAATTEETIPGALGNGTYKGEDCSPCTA

ABCB1/Pgp = tested on: ABCB1/Pgp; design: method as in Telbisz et al., 2021; conditions: vesicular transporter assay, measured previously; ref Telbisz et al., 2021; cited from earlier work
ABCG2/BCRP = tested on: ABCG2/BCRP; design: method as in Telbisz et al., 2021; conditions: vesicular transporter assay, measured previously; ref Telbisz et al., 2021; cited from earlier work
[1] = human, probe DHEAS (0.5 µM unlabeled plus 0.2 µCi radiolabeled)
[2] = taurocholate 2 µM, 37 °C, 10 min

| SMILES | ABCC2/MRP2 Type of effect (ABCC2/MRP2) | ABCC3/MRP3 Type of effect (ABCC3/MRP3; CDCF 5 µM, 37 °C, 10 min) | inhibition at […] (ABCC4/MRP4; [1]) | ABCB11/BSEP Type of effect (ABCB11/BSEP; [2]) | NTCP/SLC10A1 Type of effect (NTCP/SLC10A1) | concentration at which MRP3 transport is inhibited (ABCC3/MRP3) | ABCC4/MRP4 Type of effect (ABCC4/MRP4) | concentration at which BSEP inhibition is effective (ABCB11/BSEP) | ABCB1/Pgp Type of effect (ABCB1/Pgp) | IC50 (ABCB1/Pgp) | ABCG2/BCRP type of effect (ABCG2/BCRP) | IC50 (ABCG2/BCRP) | IC50 (ABCB11/BSEP) | IC50 (NTCP/SLC10A1) | other results |
| --- | --- | --- | --- | --- | --- | --- | --- | --- | --- | --- | --- | --- | --- | --- | --- |
| NC(=O)c1nc(F)c[nH]c1=O [FAV, favipiravir] | no such effect | did not influence MRP3 transport at all | 10 to 30% | did not modify BSEP-mediated TC transport | only minor inhibition | – | – | – | – | – | – | – | – | – | – |
| CCC(C)C1OC2(CCC1C)CC1CC(CC=C(C)C(OC3CC(OC)C(OC4CC(OC)C(O)C(C)O4)C(C)O3)C(C)C=CC=C3COC4C(O)C(C)=CC(C(=O)O1)C34O)O2 (stereo not drawn) [IVE, ivermectin] | strongly decreased the accumulation of the probe substrate and inh | inh | – | inh | only minor inhibition | > 20 µM | No effect | above 20 µM | inh | 0.3 µM | inh | 1.1 µM | – | – | IC50 (ABCC2/MRP2; approximate IC50): ≥ 20 µM; IC50 (ABCC3/MRP3; approximate IC50, CDCF 5 µM, 37 °C, 10 min): > 50 µM; IC50 (ABCB11/BSEP; approximate IC50, taurocholate 2 µM, 37 °C, 10 min): ≥ 30 µM |
| Cc1cccc(C)c1OCC(=O)N[C@@H](Cc1ccccc1)[C@@H](O)C[C@H](Cc1ccccc1)NC(=O)[C@H](C(C)C)N1CCCNC1=O [LOP, lopinavir] | no such effect | inh | 10 to 30% | strongly inhibited TC transport at low concentrations and inh | inh | > 20 µM | No effect | – | inh | 0.6 µM | inh | 4.2 µM | 7.8 µM | ≥ 50 µM | IC50 (ABCC3/MRP3): > 40 µM |
| CCC(CC)COC(=O)[C@H](C)N[P@](=O)(OC[C@H]1O[C@@](C#N)(c2ccc3c(N)ncnn23)[C@H](O)[C@@H]1O)Oc1ccccc1 [REM, remdesivir] | did not inhibit but rather increased the probe substrate transport at high concentrations; also recorded: Increase | did not influence MRP3 transport at all; also recorded: did not inhibit; also recorded: No effect | – | inh | inh | – | – | above 20 µM | inh | > 20 µM | inh | > 50 µM | ≥ 40 µM | ≥ 50 µM | IC50 (ABCC4/MRP4): 2.9 µM; IC50 at […] (ABCC4/MRP4; [1]): ~2.3 µM; inhibition at 10 min, 50 µM (ABCB11/BSEP; human, at 50 µM): 40 to 50%; inhibition at 50 µM (NTCP/SLC10A1; HEK293, read-out: NTCP inhibition): 40 to 50% |
